Experimental data from patent publication US20260355196A1, “INHIBITORS AND DEGRADERS OF PIP4K PROTEIN” (Larkspur Biosciences, Inc., priority 2023, published 2026).

What follows are compounds tested against T1, PIP4K2C (Homo sapiens, UniProt Q8TBX8) (assay: HiBiT PIP4K2C degradation assay in MOLT-4 cells (endogenous PIP4K2C C-terminally tagged with HiBiT)). Settings: 24 hours incubation, MOLT-4, top concentration 10 micromolar; read-out: HiBIT-degradation MOLT4 PIP4k2C 24 hours DC50.
T1 sequence (Q8TBX8 1-421): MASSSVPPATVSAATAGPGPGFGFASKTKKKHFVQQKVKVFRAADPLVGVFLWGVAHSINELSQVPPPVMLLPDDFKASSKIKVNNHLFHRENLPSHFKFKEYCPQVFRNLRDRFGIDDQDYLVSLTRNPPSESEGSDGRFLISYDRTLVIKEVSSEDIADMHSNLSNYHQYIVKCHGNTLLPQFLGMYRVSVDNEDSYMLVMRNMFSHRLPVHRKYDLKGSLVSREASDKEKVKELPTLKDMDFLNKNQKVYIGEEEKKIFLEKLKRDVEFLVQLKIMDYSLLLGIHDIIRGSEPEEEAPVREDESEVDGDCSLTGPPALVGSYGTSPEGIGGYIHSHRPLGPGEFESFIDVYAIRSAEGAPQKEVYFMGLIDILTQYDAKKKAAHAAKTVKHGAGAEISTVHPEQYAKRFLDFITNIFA
Assay type: cell-based
Set-up: untagged in primary human PBMCs and monocyte-derived dendritic cells
Description: Example B-2: HiBiT PIP4K2C degradation assay
Materials: MOLT-4, a human T lymphoblast cell line (see https://www.atcc.org/products/crl-1582, herein incorporated by reference in its entirety), was genetically engineered using CRISPR-Cas9 by Synthego Corporation (Redwood City, CA) to C-terminally tag endogenous PIP4K2C with HiBiT peptide. Following clonal selection, genotype was confirmed by Sanger sequencing. MO LT-4 were maintained using RPMI-1640 medium from Gibco (Grand Island, NY, catalog number 11875-085) supplemented with 10% fetal bovine serum (FBS) from VWR (Philadelphia, PA, catalog number 97068-085). For HiBiT assays the cells were resuspended in RPMI-1640 medium without phenol read from Gibco (Grand Island, NY, catalog number 11835-030) supplemented with 10% FBS. Nano-Glo® HiBiT Lytic Assay System was purchased from Promega (Madison, WI, Catalog number N3030). Cell culture flasks and 384-well microplates were purchased from Corning (Glendale, AZ).
To study PIP4K2C degradation, 384-well plates were plated with a 10-point dose response curve, 3-fold dilution, in duplicate with a top starting concentration of 10 micromolar. Subsequently 22,500 cells were added to each well and incubated at 37 C in 5% C02 for 24 hours or 6 hours. At the end of the incubation time, cells were treated with the Nano-Glo® HiBiT Lytic Detection System following the manufacturer's instructions. Luminescence was measured with a PHERAstar FSX plate reader (BMG Labtech, Cary, NC). The Levenberg-Marquardt algorithm was used to fit a Hill equation to dose-response data to calculate DC50 values (see Table 6).

DC50, < 500 nM:
O=C1CCC(Nc2ccc(C3CCN(CC(=O)N4CCN(C(=O)[C@H]5CCC[C@@H](Nc6ncc(Cl)c(-c7cccc(-c8ccccc8)c7)n6)C5)CC4)CC3)cc2)C(=O)N1 (relative stereo) [Compound 57, cis-3-((4-(1-(2-(4-(3-((4-([1,1′-biphenyl]-3-yl)-5-chloropyrimidin-2-yl)amino)cyclohexane-1-carbonyl)piperazin-1-yl)-2-oxoethyl)piperidin-4-yl)phenyl)amino)piperidine-2,6-dione]
Cn1c(=O)n(C2CCC(=O)NC2=O)c2ccc(C3CCN(C(=O)CN4CCN(C(=O)[C@H]5CCC[C@@H](Nc6ncc(Cl)c(-c7cccc(-c8ccccc8)c7)n6)C5)CC4)CC3)cc21 (relative stereo) [Compound 58, cis-3-(5-(1-(2-(4-(3-((4-([1,1′-biphenyl]-3-yl)-5-chloropyrimidin-2-yl)amino)cyclohexane-1-carbonyl)piperazin-1-yl)acetyl)piperidin-4-yl)-3-methyl-2-oxo-2,3-dihydro-1H-benzo[d]imidazol-1-yl)piperidine-2,6-dione]
Cn1c(=O)n(C2CCC(=O)NC2=O)c2ccc(C3CCN(C(=O)CC4CCN(C(=O)[C@H]5CCC[C@@H](Nc6ncc(Cl)c(-c7cccc(-c8ccccc8)c7)n6)C5)CC4)CC3)cc21 (relative stereo) [Compound 59, cis-3-(5-(1-(2-(1-(3-((4-([1,1′-biphenyl]-3-yl)-5-chloropyrimidin-2-yl)amino)cyclohexane-1-carbonyl)piperidin-4-yl)acetyl)piperidin-4-yl)-3-methyl-2-oxo-2,3-dihydro-1H-benzo[d]imidazol-1-yl)piperidine-2,6-dione]
O=C1CCC(N2Cc3cc(C4CCN(C(=O)C5CCN(C(=O)[C@H]6CCC[C@@H](Nc7ncc(Cl)c(-c8cccc(-c9ccccc9)c8)n7)C6)CC5)CC4)ccc3C2=O)C(=O)N1 (relative stereo) [Compound 60, cis-3-(5-(1-(1-(3-((4-([1,1′-biphenyl]-3-yl)-5-chloropyrimidin-2-yl)amino)cyclohexane-1-carbonyl)piperidine-4-carbonyl)piperidin-4-yl)-1-oxoisoindolin-2-yl)piperidine-2,6-dione]
O=C1CCC(N2Cc3cc(C4CCN(CCN5CCN(C(=O)[C@H]6CCC[C@@H](Nc7ncc(Cl)c(-c8cccc(-c9ccccc9)c8)n7)C6)CC5)CC4)ccc3C2=O)C(=O)N1 (relative stereo) [Compound 61, cis-3-(5-(1-(2-(4-(3-((4-([1,1′-biphenyl]-3-yl)-5-chloropyrimidin-2-yl)amino)cyclohexane-1-carbonyl)piperazin-1-yl)ethyl)piperidin-4-yl)-1-oxoisoindolin-2-yl)piperidine-2,6-dione]
O=C1CCC(N2Cc3cc(C4CCN(CCC5CCN(C(=O)[C@H]6CCC[C@@H](Nc7ncc(Cl)c(-c8cccc(-c9ccccc9)c8)n7)C6)CC5)CC4)ccc3C2=O)C(=O)N1 (relative stereo) [Compound 62, cis-3-(5-(1-(2-(1-(3-((4-([1,1′-biphenyl]-3-yl)-5-chloropyrimidin-2-yl)amino)cyclohexane-1-carbonyl)piperidin-4-yl)ethyl)piperidin-4-yl)-1-oxoisoindolin-2-yl)piperidine-2,6-dione]
O=C1CCC(N2Cc3cc(C4CCN(CC5CCN(C(=O)[C@H]6CCC[C@@H](Nc7ncc(Cl)c(-c8cccc(-c9ccccc9)c8)n7)C6)CC5)CC4)ccc3C2=O)C(=O)N1 (relative stereo) [Compound 63, cis-3-(5-(1-((1-(3-((4-([1,1′-biphenyl]-3-yl)-5-chloropyrimidin-2-yl)amino)cyclohexane-1-carbonyl)piperidin-4-yl)methyl)piperidin-4-yl)-1-oxoisoindolin-2-yl)piperidine-2,6-dione]
O=C1CCC(Nc2ccc(C3CCN(CCC4CCN(C(=O)[C@H]5CCC[C@@H](Nc6ncc(Cl)c(-c7cccc(-c8ccccc8)c7)n6)C5)CC4)CC3)cc2)C(=O)N1 (relative stereo) [Compound 64, cis-3-((4-(1-(2-(1-(3-((4-([1,1′-biphenyl]-3-yl)-5-chloropyrimidin-2-yl)amino)cyclohexane-1-carbonyl)piperidin-4-yl)ethyl)piperidin-4-yl)phenyl)amino)piperidine-2,6-dione]
O=C1CCC(Nc2ccc(C3CCN(CC4CCN(C(=O)[C@H]5CCC[C@@H](Nc6ncc(Cl)c(-c7cccc(-c8ccccc8)c7)n6)C5)CC4)CC3)cc2)C(=O)N1 (relative stereo) [Compound 65, cis-3-((4-(1-((1-(3-((4-([1,1′-biphenyl]-3-yl)-5-chloropyrimidin-2-yl)amino)cyclohexane-1-carbonyl)piperidin-4-yl)methyl)piperidin-4-yl)phenyl)amino)piperidine-2,6-dione]
O=C1CCC(N2Cc3cc(OC4CCN(CC5CCN(C(=O)[C@H]6CCC[C@@H](Nc7ncc(Cl)c(-c8cccc(-c9ccccc9)c8)n7)C6)CC5)CC4)ccc3C2=O)C(=O)N1 (relative stereo) [Compound 76, cis-3-(5-((1-((1-(3-((4-([1,1′-biphenyl]-3-yl)-5-chloropyrimidin-2-yl)amino)cyclohexane-1-carbonyl)piperidin-4-yl)methyl)piperidin-4-yl)oxy)-1-oxoisoindolin-2-yl)piperidine-2,6-dione]
O=C1CCC(N2Cc3cc(OC4CCN(CCC5CCN(C(=O)[C@H]6CCC[C@@H](Nc7ncc(Cl)c(-c8cccc(-c9ccccc9)c8)n7)C6)CC5)CC4)ccc3C2=O)C(=O)N1 (relative stereo) [Compound 79, cis-3-(5-((1-(2-(1-(3-((4-([1,1′-biphenyl]-3-yl)-5-chloropyrimidin-2-yl)amino)cyclohexane-1-carbonyl)piperidin-4-yl)ethyl)piperidin-4-yl)oxy)-1-oxoisoindolin-2-yl)piperidine-2,6-dione]
O=C1CCC(N2Cc3cc(OC4CCN(CCN5CCN(C(=O)[C@H]6CCC[C@@H](Nc7ncc(Cl)c(-c8cccc(-c9ccccc9)c8)n7)C6)CC5)CC4)ccc3C2=O)C(=O)N1 (relative stereo) [Compound 80, cis-3-(5-((1-(2-(4-(3-((4-([1,1′-biphenyl]-3-yl)-5-chloropyrimidin-2-yl)amino)cyclohexane-1-carbonyl)piperazin-1-yl)ethyl)piperidin-4-yl)oxy)-1-oxoisoindolin-2-yl)piperidine-2,6-dione]
O=C1CCC(N2Cc3cc(OC4CCN(C(=O)CC5CCN(C(=O)[C@H]6CCC[C@@H](Nc7ncc(Cl)c(-c8cccc(-c9ccccc9)c8)n7)C6)CC5)CC4)ccc3C2=O)C(=O)N1 (relative stereo) [Compound 81, cis-3-(5-((1-(2-(1-(3-((4-([1,1′-biphenyl]-3-yl)-5-chloropyrimidin-2-yl)amino)cyclohexane-1-carbonyl)piperidin-4-yl)acetyl)piperidin-4-yl)oxy)-1-oxoisoindolin-2-yl)piperidine-2,6-dione]
